Legend:
Format in all cases: cell-based
[1] = test system: Helicobacter pylori ATCC 43504; experiment: Well diffusion method, zones of inhibition; conditions: ATCC43504, 72 h, H. pylori ATCC 43504, 1000 μg/well, 3 days, 37° C., microaerobic
Method: (§1) Helicobacter pylori ATCC 43504 and ATCC 700392 were purchased from the American Type Culture Collection (ATCC, Manassas, Va., USA). Cultures were grown in brain heart infusion (BHI) agar/broth (HiMedia, Mumbai India) supplemented with 7% (v/v) sheep blood or fetal bovine serum and incubated at 37° C. under microaerobic conditions (Na, 85%; 02, 5%; CO2, 10%) using an anaerobic chamber (Imset, Mumbai, India). Bacillus coagulans MTCC 5856 was grown in MRS media by adding inoculum (5% v/v) to the MRS broth and incubated at 37° C. for 24 h. After 24 h, the culture was centrifuged (5,000×g) to remove the cells and the supernatant was collected, concentrated 10-fold by lyophilization and filter sterilized through a 0.22 micron filter (Millipore, India). The cell-free supernatant was tested against H. pylori and 10-fold concentrated supernatant was also tested against H. pylori ATCC 43504 and ATCC 700392. Similar to above, BHI agar plates supplemented with 7% (v/v) fetal bovine serum were prepared containing a strain of Helicobacter pylori ATCC 43504 or ATCC 700392. Further, well was made in the BHI agar plates containing Helicobacter pylori ATCC 43504 or ATCC 700392. […] After incubation, the antibacterial activities were evaluated by measuring a diameter of the inhibition zone. […]

[2] = test system: Helicobacter pylori ATCC 700392; experiment: Well diffusion method, zones of inhibition; conditions: ATCC700392, 72 h, H. pylori ATCC 700392, 1000 μg/well, 3 days, 37° C., microaerobic
Method: as §1

[3] = test system: Helicobacter pylori ATCC 43504; experiment: Minimum inhibitory concentration (MIC) determination, broth microdilution; conditions: H. pylori ATCC 43504; 72 h, BHI broth with 7% FBS, no turbidity
Method: (§2) Helicobacter pylori ATCC 43504 and ATCC 700392 were purchased from the American Type Culture Collection (ATCC, Manassas, Va., USA). Cultures were grown in brain heart infusion (BHI) agar/broth (HiMedia, Mumbai India) supplemented with 7% (v/v) sheep blood or fetal bovine serum and incubated at 37° C. under microaerobic conditions (Na, 85%; 02, 5%; CO2, 10%) using an anaerobic chamber (Imset, Mumbai, India). Bacillus coagulans MTCC 5856 was grown in MRS media by adding inoculum (5% v/v) to the MRS broth and incubated at 37° C. for 24 h. After 24 h, the culture was centrifuged (5,000×g) to remove the cells and the supernatant was collected, concentrated 10-fold by lyophilization and filter sterilized through a 0.22 micron filter (Millipore, India). The cell-free supernatant was tested against H. pylori and 10-fold concentrated supernatant was also tested against H. pylori ATCC 43504 and ATCC 700392. The MICs of curcumin, β-glucogallin and mucic acid gallates extract and Piperine extract were determined as per the guidelines of Clinical and Laboratory Standards Institute (formerly the National Committee for Clinical Laboratory Standards). […] After incubation, plates were visually read for the absence or presence of turbidity. The minimum concentration of the compound concentration showing no turbidity was recorded as MIC.

[4] = test system: Helicobacter pylori ATCC 700392; experiment: as above; conditions: H. pylori ATCC 700392; 72 h, BHI broth with 7% FBS, no turbidity
Method: as §2

COc1cc(/C=C/C(=O)CC(=O)/C=C/c2ccc(O)c(OC)c2)ccc1O [Curcumin]
zone of inhibition at 1000 µg/disc [1]: 13 ± 1.2 mm | zone of inhibition at 1000 µg/disc [2]: 14 ± 1.2 mm | MIC range [3]: 125 to 250 mg/L | MIC range [4]: 125 to 250 mg/L

— patent US10792295B2, “Compositions for management of Helicobacter pylori infections” (SAMI LABS LIMITED, priority 2017, dated 2020)
